This note sets out measurements from ChEMBL document CHEMBL5357059, “Arenarialins A-F, Anti-inflammatory Meroterpenoids with Rearranged Skeletons from the Marine Sponge Dysidea arenaria” (J Nat Prod, 2024).

In series [1] the test system is RAW264.7. The series can be described thus: Cytotoxicity against mouse RAW264.7 cells assessed as reduction in cell viability at 2.5 to 20 uM incubated for 24 hrs by CCK-8 assay. Type of series: toxicity, cell-based. To be noted: raw264.7, 24 h, dose 2.5-20 µM. (In general: Formazan colour is commonly taken as a measure of viable cells.)
Series [2] concerns RAW264.7. The series can be described thus: Antiinflammatory activity in LPS-induced mouse RAW264.7 cells assessed as inhibition of TNFalpha production at 5 to 20 uM pretreated for 1 hr followed by LPS stimulation and measured after 3 hrs by ELISA. It counts as functional, cell-based. To be noted: dose 5-20 µM, time 4.0 hrs. (An ELISA detects its analyte on a solid surface through an enzyme-linked reagent.)

Series [3] concerns RAW264.7. Nature of the series: Antiinflammatory activity in LPS-induced mouse RAW264.7 cells assessed as inhibition of IL-6 production pretreated for 1 hr followed by LPS stimulation and measured after 3 hrs by ELISA. It counts as functional, cell-based. To be noted: dose 2.5-20 µM, time 4.0 hrs.
In series [4] the target is T1, NF-kappa-B inhibitor alpha (Mus musculus) (UniProt Q9Z1E3).
T1 sequence (whole entry): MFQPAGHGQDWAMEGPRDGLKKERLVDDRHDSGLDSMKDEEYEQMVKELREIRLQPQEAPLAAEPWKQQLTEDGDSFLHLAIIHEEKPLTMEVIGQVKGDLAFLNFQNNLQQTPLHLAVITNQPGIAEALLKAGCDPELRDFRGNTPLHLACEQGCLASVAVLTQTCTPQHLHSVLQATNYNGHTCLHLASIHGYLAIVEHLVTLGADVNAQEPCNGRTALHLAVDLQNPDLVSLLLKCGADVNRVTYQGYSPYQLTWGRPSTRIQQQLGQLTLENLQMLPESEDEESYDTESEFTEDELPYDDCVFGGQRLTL
Nature of the series: Inhibition of IkappaBalpha phosphorylation at Ser32 residue in LPS-induced mouse RAW264.7 cells at 5 uM pretreated for 2 hrs followed by LPS stimulation and measured after 25 mins by Western blot analysis. Type of series: cell-based. To be noted: time 145.0 min.

Series [5] addresses Mitogen-activated protein kinase 1 and 3 (ERK2 and ERK1) (Mus musculus) (UniProt P63085+Q63844). Nature of the series: Inhibition of LPS-induced ERK1/2 phosphorylation in mouse RAW264.7 cells assessed as reduction in p-ERK1/2 protein expression at 2.5 to 5 uM pretreated for 2 hrs followed by LPS stimulation and measured after 25 mins by Western blot analysis. It counts as cell-based. To be noted: dose 2.5-5 µM, time 145.0 min. In general terms: Immunoblotting shows a protein as a band on a membrane.

Series [6] relates to RAW264.7. The series can be described thus: Effect on COX-2 protein expression in LPS-induced mouse RAW264.7 cells at 5 uM pretreated for 2 hrs followed by LPS stimulation and measured after 25 mins by Western blot analysis. The settings on record: time 145.0 min. Type of series: functional, cell-based.
Series [7] has as its target c-Jun N-terminal kinase (Mus musculus) (UniProt Q91Y86+Q9WTU6+Q61831). Nature of the series: Inhibition of LPS-induced JNK phosphorylation in mouse RAW264.7 cells assessed as reduction in p-JNK protein expression at 2.5 to 5 uM pretreated for 2 hrs followed by LPS stimulation and measured after 25 mins by Western blot analysis. It counts as cell-based. The settings on record: dose 2.5-5 µM, time 145.0 min.

The target of series [8] is Transcription factor p65 (Mus musculus) (UniProt Q04207). Nature of the series: Inhibition of NFkappaB p65 phosphorylation at Ser536 residue in LPS-induced mouse RAW264.7 cells assessed as downregulation of p-NFkappaB p65 protein expression at 5 uM pretreated for 2 hrs followed by LPS stimulation and measured after 25 mins by Western blot analysis. It counts as cell-based. To be noted: time 145.0 min.
Chain of Transcription factor p65 (Mus musculus) (Q04207 whole entry): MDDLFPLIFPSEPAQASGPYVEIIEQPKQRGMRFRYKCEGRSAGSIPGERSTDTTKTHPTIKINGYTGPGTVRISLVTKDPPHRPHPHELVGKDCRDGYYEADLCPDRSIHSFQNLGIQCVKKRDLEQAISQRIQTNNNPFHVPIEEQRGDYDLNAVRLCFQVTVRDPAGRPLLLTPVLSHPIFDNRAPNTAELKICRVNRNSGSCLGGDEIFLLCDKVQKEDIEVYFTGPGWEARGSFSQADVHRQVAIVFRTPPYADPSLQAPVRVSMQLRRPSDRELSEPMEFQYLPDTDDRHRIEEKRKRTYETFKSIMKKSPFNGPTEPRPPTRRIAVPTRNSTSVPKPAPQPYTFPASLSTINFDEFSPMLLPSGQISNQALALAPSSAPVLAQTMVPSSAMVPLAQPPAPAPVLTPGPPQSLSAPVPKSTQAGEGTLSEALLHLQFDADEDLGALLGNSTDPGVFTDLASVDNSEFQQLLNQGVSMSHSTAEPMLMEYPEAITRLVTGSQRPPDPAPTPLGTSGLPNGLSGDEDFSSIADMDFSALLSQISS

In series [9] the test system is RAW264.7. Nature of the series: Inhibition of LPS-induced p38 phosphorylation in mouse RAW264.7 cells assessed as reduction in p-p38 protein expression at 2.5 to 5 uM pretreated for 2 hrs followed by LPS stimulation and measured after 25 mins by Western blot analysis. The settings on record: dose 2.5-5 µM, time 145.0 min. Type of series: cell-based.

Each structure is given as a SMILES string. The source made the active and inactive calls. No cut-off for these calls is given here.

Chain of c-Jun N-terminal kinase (Mus musculus) (Q61831 whole entry, looked up): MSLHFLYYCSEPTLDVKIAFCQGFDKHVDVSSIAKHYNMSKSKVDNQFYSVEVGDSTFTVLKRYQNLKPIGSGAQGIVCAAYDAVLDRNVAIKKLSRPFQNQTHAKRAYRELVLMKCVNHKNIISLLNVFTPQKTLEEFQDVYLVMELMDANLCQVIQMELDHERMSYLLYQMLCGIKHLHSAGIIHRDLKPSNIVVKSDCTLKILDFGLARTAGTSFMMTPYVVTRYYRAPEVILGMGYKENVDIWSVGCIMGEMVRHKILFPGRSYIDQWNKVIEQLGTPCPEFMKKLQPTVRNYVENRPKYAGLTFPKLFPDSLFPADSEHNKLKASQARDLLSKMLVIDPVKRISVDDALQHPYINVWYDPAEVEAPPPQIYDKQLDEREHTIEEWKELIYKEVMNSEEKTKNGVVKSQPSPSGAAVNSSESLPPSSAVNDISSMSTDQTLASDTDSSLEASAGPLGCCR
Chain of c-Jun N-terminal kinase (Mus musculus) (Q91Y86 whole entry, looked up): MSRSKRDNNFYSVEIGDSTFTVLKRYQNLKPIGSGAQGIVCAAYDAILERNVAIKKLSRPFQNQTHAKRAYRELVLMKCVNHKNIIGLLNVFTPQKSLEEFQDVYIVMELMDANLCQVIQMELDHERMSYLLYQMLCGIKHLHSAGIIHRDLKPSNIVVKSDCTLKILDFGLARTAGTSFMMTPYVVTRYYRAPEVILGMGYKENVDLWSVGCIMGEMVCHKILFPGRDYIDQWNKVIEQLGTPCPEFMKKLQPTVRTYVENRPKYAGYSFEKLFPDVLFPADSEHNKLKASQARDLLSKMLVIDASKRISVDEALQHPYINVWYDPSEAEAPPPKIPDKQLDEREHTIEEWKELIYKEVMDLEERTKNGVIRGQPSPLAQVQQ
Chain of c-Jun N-terminal kinase (Mus musculus) (Q9WTU6 whole entry, looked up): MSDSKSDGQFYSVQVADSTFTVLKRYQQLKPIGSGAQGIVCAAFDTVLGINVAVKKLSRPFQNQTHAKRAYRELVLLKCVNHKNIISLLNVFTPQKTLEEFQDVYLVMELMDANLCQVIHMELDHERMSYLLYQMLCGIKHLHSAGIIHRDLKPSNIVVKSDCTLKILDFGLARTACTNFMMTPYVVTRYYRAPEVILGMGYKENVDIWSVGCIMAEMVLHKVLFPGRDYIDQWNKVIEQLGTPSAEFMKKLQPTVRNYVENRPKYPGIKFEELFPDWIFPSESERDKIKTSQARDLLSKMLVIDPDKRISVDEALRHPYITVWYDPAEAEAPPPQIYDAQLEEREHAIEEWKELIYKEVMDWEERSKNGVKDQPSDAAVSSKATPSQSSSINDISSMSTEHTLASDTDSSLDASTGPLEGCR
Chain of Mitogen-activated protein kinase 1 and 3 (ERK2 and ERK1) (Mus musculus) (P63085 whole entry, looked up): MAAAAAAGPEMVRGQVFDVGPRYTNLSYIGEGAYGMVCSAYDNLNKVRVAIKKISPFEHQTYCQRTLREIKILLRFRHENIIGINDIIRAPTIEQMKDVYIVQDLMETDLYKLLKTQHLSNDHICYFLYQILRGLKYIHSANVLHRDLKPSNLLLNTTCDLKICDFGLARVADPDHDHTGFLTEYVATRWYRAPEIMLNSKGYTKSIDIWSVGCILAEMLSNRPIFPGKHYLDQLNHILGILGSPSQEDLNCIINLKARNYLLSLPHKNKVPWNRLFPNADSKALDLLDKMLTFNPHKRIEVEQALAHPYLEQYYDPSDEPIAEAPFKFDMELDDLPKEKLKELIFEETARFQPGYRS
Chain of Mitogen-activated protein kinase 1 and 3 (ERK2 and ERK1) (Mus musculus) (Q63844 whole entry, looked up): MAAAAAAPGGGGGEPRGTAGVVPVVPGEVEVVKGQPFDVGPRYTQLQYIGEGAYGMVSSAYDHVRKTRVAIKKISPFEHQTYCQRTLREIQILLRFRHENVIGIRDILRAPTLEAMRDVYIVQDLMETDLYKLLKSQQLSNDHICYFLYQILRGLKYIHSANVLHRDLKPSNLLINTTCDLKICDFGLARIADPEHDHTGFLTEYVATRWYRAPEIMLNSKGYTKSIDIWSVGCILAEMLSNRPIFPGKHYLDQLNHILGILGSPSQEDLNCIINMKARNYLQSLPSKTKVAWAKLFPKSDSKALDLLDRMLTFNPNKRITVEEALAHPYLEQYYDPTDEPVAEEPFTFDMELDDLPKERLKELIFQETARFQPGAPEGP

Regarding `CCOC1=CC(=O)C2=C(C1=O)[C@@H]1C[C@]3(C)C(C)=CCCC3=C(C)[C@]1(C)C2`, the Activity entry in the series with RAW264.7 [1] is recorded as “Non-Toxic”. The result in the series with RAW264.7 [2] was Active.

As for `C[C@H]1CC[C@@]2(C)[C@]34CC(=O)C[C@]2(C)Oc2ccc(O)c(c23)C[C@]14C`, the Activity result was “Non-Toxic” in the series with RAW264.7 [1] and “Dose-Dependent Effect” in the series on RAW264.7 [3]. In addition, the result with RAW264.7 [2] was Active.

As for `C[C@@H]1CC[C@@]2(C)OC(=O)[C@H]3Oc4ccc(O)cc4C[C@]1(C)[C@@H]32`, the inhibition result in series [4] is “inactive”. For the same compound, the inhibition entry (in series [5]; in series [7]; in [8]; in the series on RAW264.7 [9]) was “Active” in each case. Also, in the series with RAW264.7 [6], the outcome was inactive. The Activity result with RAW264.7 [1] is “Non-Toxic”; with RAW264.7 [3], “Dose-Dependent Effect”. The result in the series with RAW264.7 [2] was Active.

`CC1=CC(=O)[C@@H]2Oc3ccc(O)cc3C[C@]3(C)[C@@H](C)CC[C@@]1(C)[C@@H]23`: the Activity entry is “Non-Toxic” in the series with RAW264.7 [1] and “Dose-Dependent Effect” with RAW264.7 [3]. Besides, the result with RAW264.7 [2] was Active.

For the compound `C[C@H]1CC[C@]2(C)[C@@H](C)OC(=O)C[C@]23c2c(O)ccc(O)c2C[C@]13C`, in the series on RAW264.7 [1], the Activity entry is “Non-Toxic”.

`C=C1[C@H](O)C[C@@H]2Oc3ccc(O)cc3C[C@]3(C)[C@@H](C)CC[C@@]1(C)[C@@H]23`: the results for the Activity result in the series with RAW264.7 [1] and in the series with RAW264.7 [3] were “Non-Toxic” and “Dose-Dependent Effect”, respectively.
